This note sets out measurements from PubChem BioAssay (NCI).

Several values for one entry are separate records, joined by “and”; a condition that tells them apart may be missing. Equal values may be shown once.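 Protocol summary: plate cells (96-well), add compound at 5 concentrations, incubate 48 h, interpolate endpoints linearly. GI50 is the concentration that inhibits growth by half. The concentration for full growth arrest is given as TGI.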

Some test systems named below: NCI-H23 lung; SNB-75 CNS; ACHN renal; SF-295 CNS; MDA-MB-435; 786-0 renal; KM12 colon; HOP-62 NSCLC; MCF7 breast; SR leukemia.
Holding throughout (assay): inhibition of tumour cell growth, NCI panel, 48 h

As to `Cc1[nH]nc(C(F)(F)F)c1Cc1sc2c(c1C(=O)N1C[C@](C)(O)CO1)c(=O)n(C)c(=O)n2C(C)C`, the GI50 with NCI-H23 lung, in the experiment on SNB-75 CNS, in the experiment with ACHN renal, in the experiment with SF-295 CNS, with MDA-MB-435 and in the experiment with 786-0 renal was greater than 100 µM each time. Besides, the GI50 in the experiment on KM12 colon, in the experiment on HOP-62 NSCLC and with MCF7 breast was greater than 100 µM in each case. Besides, the TGI in the experiment on NCI-H23 lung, in the experiment with SNB-75 CNS, in the experiment on ACHN renal, with SF-295 CNS, in the experiment with MDA-MB-435 and in the experiment with 786-0 renal was greater than 100 µM each time. Further, the TGI with KM12 colon, with HOP-62 NSCLC and in the experiment on MCF7 breast was greater than 100 µM each time.

On to `O=C1c2ccccc2C(=O)N1CC#CCO`, for which the TGI in the experiment on NCI-H23 lung, in the experiment on SR leukemia, in the experiment on ACHN renal, with SF-295 CNS, with 786-0 renal and with KM12 colon was greater than 100 µM each time. The same molecule yielded a TGI in the experiment on HOP-62 NSCLC greater than 100 µM.

As to `NS(=O)(=O)c1ccc(-n2nc3c(c2-c2cccs2)Cc2ccccc2-3)cc1`, the GI50 is 11.9 µM in the experiment on NCI-H23 lung; 25.5 µM in the experiment on SNB-75 CNS; 11.7 µM in the experiment on ACHN renal; 13.8 µM in the experiment with SF-295 CNS; 11.8 µM with MDA-MB-435; 17.1 µM with 786-0 renal. Moreover, the results for the GI50 in the experiment on KM12 colon, with HOP-62 NSCLC and in the experiment with MCF7 breast were 13.5 µM, 16.5 µM and greater than 100 µM, respectively. The TGI in the experiment with NCI-H23 lung came to 24.8 µM; in the experiment with SNB-75 CNS, 83.1 µM; with ACHN renal, 24.7 µM; in the experiment on SF-295 CNS, 31.4 µM; with MDA-MB-435, 27.6 µM; in the experiment with 786-0 renal, 31.9 µM. Moreover, the TGI in the experiment on KM12 colon is 32.2 µM; with HOP-62 NSCLC it was 32.2 µM; with MCF7 breast, greater than 100 µM.

For `COc1cc(C2c3cc4c(cc3[C@@H](NC3CCN(Cc5ccccc5)CC3)C3COC(=O)[C@H]23)OCO4)cc(OC)c1O` (some centres undefined), the GI50 was 0.126 µM and 0.0406 µM in the experiment on NCI-H23 lung; 0.0324 µM and 0.218 µM in the experiment with SNB-75 CNS; 0.161 µM and 0.0333 µM in the experiment with 786-0 renal. Also, the TGI was 0.623 µM and 0.224 µM with NCI-H23 lung; 0.02 µM in the experiment on SR leukemia; 1.79 µM and 0.636 µM with SNB-75 CNS; 0.498 µM and 0.752 µM with SF-295 CNS; 0.668 µM and 0.221 µM in the experiment with 786-0 renal; 2.23 µM and 1.02 µM with KM12 colon. Besides, the TGI in the experiment with HOP-62 NSCLC was 0.206 µM and 0.146 µM.

`CC(NNC(=S)N1CCN(c2ccccn2)CC1)c1nccc2ccccc12` (centres undefined): the TGI in the experiment with NCI-H23 lung worked out at 13.7 µM; in the experiment with SNB-75 CNS, 18.9 µM; in the experiment with ACHN renal it was 10.9 µM; in the experiment on SF-295 CNS, 11.9 µM; with MDA-MB-435, 17 µM; in the experiment on 786-0 renal, 13 µM. In addition, the TGI in the experiment with KM12 colon is 19 µM; in the experiment with HOP-62 NSCLC, 15.5 µM; with MCF7 breast, 14.3 µM.

Consider `Nc1ccc(C#Cc2ccccc2C#CCCCCO)cc1`, for which the GI50 with NCI-H23 lung was 18.2 µM; in the experiment with SNB-75 CNS, 14.4 µM; with ACHN renal it was 14.5 µM; with SF-295 CNS it was 22.3 µM; in the experiment with MDA-MB-435, 19.7 µM; in the experiment with 786-0 renal, 13.8 µM. Besides, the figures for the GI50 in the experiment with KM12 colon, with HOP-62 NSCLC and with MCF7 breast were 15.9 µM, 15.2 µM and 23.5 µM, respectively. In addition, the TGI was determined as 35.1 µM in the experiment on NCI-H23 lung; 29.8 µM in the experiment with SNB-75 CNS; 27.5 µM in the experiment on ACHN renal; 41.1 µM in the experiment on SF-295 CNS; 36.6 µM with MDA-MB-435; 27.5 µM with 786-0 renal. Moreover, the TGI was 33.4 µM with KM12 colon, 28.7 µM in the experiment on HOP-62 NSCLC and 52.2 µM with MCF7 breast.

Consider `COC(=O)C1=C(C)NC(=S)NC1c1ccc(N(CCCl)CCCl)cc1Cl` (centres undefined), for which the TGI with NCI-H23 lung was greater than 62.1 µM; in the experiment with SNB-75 CNS, greater than 100 µM; with ACHN renal it was greater than 75.9 µM; in the experiment with SF-295 CNS, greater than 82.4 µM; in the experiment with MDA-MB-435, 37.4 µM; in the experiment with 786-0 renal, greater than 100 µM. The TGI with KM12 colon was greater than 73.4 µM; in the experiment on HOP-62 NSCLC, greater than 100 µM; with MCF7 breast, 66.1 µM.

`Cc1cc(-c2ccccc2)nc(Nc2cc3ccccc3[nH]2)n1`: the TGI in the experiment with NCI-H23 lung, in the experiment on SR leukemia, in the experiment with ACHN renal, in the experiment with SF-295 CNS, in the experiment with 786-0 renal and in the experiment with KM12 colon was greater than 100 µM each time. In the experiment with HOP-62 NSCLC, this molecule yielded a TGI greater than 100 µM.

As for `CN1C(=O)N(C)C2C1NC(=S)N2/N=C/C=C/c1ccccc1[N+](=O)[O-]` (centres undefined), the GI50 with NCI-H23 lung was 2.75 µM; with SNB-75 CNS it was 0.319 µM; in the experiment with ACHN renal it was 0.988 µM; in the experiment with SF-295 CNS, 0.625 µM; with MDA-MB-435, 0.271 µM; in the experiment with 786-0 renal, 0.835 µM. Also, the GI50 was 0.774 µM in the experiment on KM12 colon, 1.01 µM in the experiment on HOP-62 NSCLC and 0.409 µM with MCF7 breast. Moreover, the TGI was greater than 100 µM in the experiment with NCI-H23 lung; greater than 100 µM with SNB-75 CNS; greater than 100 µM in the experiment with ACHN renal; greater than 100 µM with SF-295 CNS; 0.997 µM in the experiment on MDA-MB-435; greater than 100 µM in the experiment on 786-0 renal. The TGI in the experiment with KM12 colon, with HOP-62 NSCLC and in the experiment with MCF7 breast was greater than 100 µM each time.
